Data on 8 compounds can be found in US20040220267A1, “Derivatives of pentacyclic nortriterpene quinone methides as compounds useful in the treatment of inflammatory, neurodegenerative, and neoplastic diseases” (priority 2003, published 2004).

Read-outs that look alike come from different tables or passages of the source.

A word on the IC50: it is the concentration that gives 50% inhibition.

For one data set, the system named is protein aggregation. Description: In vitro Huntington Aggregation Assay. Format: biochemical.
The next data set has as its system Hsp70. Format: cell-based.
For a further data set, the system named is nitric oxide production. The note with it: cited from earlier work.
In another data set the test system is human leukemia HL-60. The note with it: cited from earlier work; for rank order of potency: apoptosis induction in HL-60 and topoisomerase II inhibition, Nagase et al. 2003.
The next data set relates to topoisomerase II. The note with it: cited from earlier work.
Data set [1] in a line: Cellular toxicity / cytotoxicity. Format: cell-based.
The subject of data set [2] is constitutive NO synthases. The note with it: cited from earlier work.
Another data set relates to IL-1β. The note with it: cited from earlier work.
For a further data set, the system named is microglia. The note with it: cited from earlier work.
The next data set relates to inducible NO synthase. The note with it: cited from earlier work.
A further data set concerns NF-κB activation. The note with it: cited from earlier work.
The next data set has as its system TNF-α. The note with it: cited from earlier work.
In data set [3] the test system is heat shock proteins (HSPs). The note with it: cited from earlier work.

Regarding dihydropristimerin, the “inhibition of protein aggregation in the in vitro Huntington Aggregation assay” value (“inhibition of protein aggregation” below) in the data set on protein aggregation is on record as “potent”. Also, the Hsp70 generation result is given as “.050” in the data set with Hsp70 (Dose 0.1 uM); “.039” in the data set on Hsp70 (Dose 0.3 uM); “.037” in the data set with Hsp70 (Dose 0.5 uM); “.043” in the data set on Hsp70 (Dose 1.0 uM); “.042” with Hsp70 (Dose 2.0 uM); “.045” in the data set with Hsp70 (Dose 3.0 uM). Further, the results for the Hsp70 generation result in the data set with Hsp70 (Dose 6 uM) and with Hsp70 (Dose 10 uM) were “.102” and “.034”, respectively.

As to `N=C(N)NN` [aminoguanidine], in the data set with nitric oxide production, the 50% inhibitory concentration (IC50) was 16000 nM.

In the case of `COC(=O)[C@]1(C)CC[C@]2(C)CC[C@]3(C)C4=CCc5c(cc(OC(C)=O)c(OC(C)=O)c5C)[C@]4(C)CC[C@@]3(C)[C@@H]2C1` [dihydropristimerin diacetate], the Hsp70 generation entry is listed as “.038” in the data set with Hsp70 (Dose 0.1 uM); “.048” in the data set on Hsp70 (Dose 0.3 uM); “.042” in the data set on Hsp70 (Dose 0.5 uM); “.049” in the data set on Hsp70 (Dose 1.0 uM); “.047” in the data set on Hsp70 (Dose 2.0 uM); “.049” in the data set on Hsp70 (Dose 3.0 uM). Also, the results for the Hsp70 generation result with Hsp70 (Dose 6 uM) and in the data set on Hsp70 (Dose 10 uM) were “.246” and “.273”, respectively.

As for `COc1cc([C@@H]2c3cc4c(cc3[C@@H](O[C@@H]3O[C@@H]5CO[C@@H](C)O[C@H]5[C@H](O)[C@H]3O)[C@H]3COC(=O)[C@H]23)OCO4)cc(OC)c1O` [etoposide], in the data set with human leukemia HL-60, the “rank order of potency” value was “celastrol>etoposide>dihydrocelastrol”.

As for `COC(=O)[C@]1(C)CC[C@]2(C)CC[C@]3(C)C4=CC=C5C(=CC(=O)C(O)=C5C)[C@]4(C)CC[C@@]3(C)[C@@H]2C1` [pristimerin, reference compound], the Hsp70 generation result in the data set on Hsp70 (Dose 0.1 uM) is reported as “.30”; with Hsp70 (Dose 0.3 uM), “.056”; with Hsp70 (Dose 0.5 uM) it was “.331”; in the data set on Hsp70 (Dose 1.0 uM), 2.84; with Hsp70 (Dose 2.0 uM), “.094”; in the data set with Hsp70 (Dose 3.0 uM) it was “.035”. Further, the figures for the Hsp70 generation entry with Hsp70 (Dose 6 uM) and in the data set with Hsp70 (Dose 10 uM) were “.033” and 1.25, respectively.

As for `Cc1c(O)c(O)cc2c1CC=C1[C@@]2(C)CC[C@@]2(C)[C@@H]3C[C@](C)(C(=O)O)CC[C@]3(C)CC[C@]12C` [dihydrocelastrol], the “activity in inhibiting topoisomerase II compared with celastrol and etoposide” value in the data set with topoisomerase II is listed as “weaker activity”. In addition, the “rank order of potency” value in the data set with human leukemia HL-60 was “celastrol>etoposide>dihydrocelastrol”. In the data set with human leukemia HL-60 (human leukemia HL-60 model), the “activity in inducing apoptosis compared with celastrol and etoposide” value is “weaker activity”. For the same compound, the “inhibition of protein aggregation” value in the data set on protein aggregation is “potent”. The Hsp70 generation result in the data set on Hsp70 (Dose 0.1 uM) is “.051”; in the data set with Hsp70 (Dose 0.3 uM), “.036”; with Hsp70 (Dose 0.5 uM) it was “.033”; in the data set on Hsp70 (Dose 1.0 uM) it was “.052”; in the data set on Hsp70 (Dose 2.0 uM), “.049”; in the data set on Hsp70 (Dose 3.0 uM), “.117”. In addition, the Hsp70 generation in the data set with Hsp70 (Dose 6 uM) is reported as 3.37; with Hsp70 (Dose 10 uM) it was “.044”.

dihydrocelastrol diacetate: the “cytotoxicity compared with celastrol” value in data set [1] is “reduced cytotoxicity”. In addition, the “inhibition of protein aggregation” value in the data set on protein aggregation is “potent”. The “potency compared with celastrol” value in the data set on Hsp70 was “at least equivalent to celastrol in potency”. For the same compound, the Hsp70 generation result with Hsp70 (Dose 0.1 uM) is given as “.041”; in the data set with Hsp70 (Dose 0.3 uM), “.039”; in the data set on Hsp70 (Dose 0.5 uM), “.041”; in the data set with Hsp70 (Dose 1.0 uM) it was “.071”; in the data set with Hsp70 (Dose 2.0 uM) it was 12.3; in the data set on Hsp70 (Dose 3.0 uM), 2.61. Moreover, the results for the Hsp70 generation result in the data set with Hsp70 (Dose 6 uM) and in the data set with Hsp70 (Dose 10 uM) were “.040” and “.096”, respectively.

As for `CC1=C(O)C(=O)C=C2C1=CC=C1[C@@]2(C)CC[C@@]2(C)[C@@H]3C[C@](C)(C(=O)O)CC[C@]3(C)CC[C@]12C` [celastrol, reference compound], in data set [2], the “inhibition of constitutive NO synthases” value was “does not inhibit”. In addition, the “concentration inhibiting topoisomerase II” value in the data set on topoisomerase II was “sub-micromolar concentrations”. Besides, the “inhibition of production of IL-1β” value with IL-1β is “inhibits”. Besides, in the data set on microglia, the “inhibition of microglial activation” value is on record as “inhibits”. Also, the “rank order of potency” value in the data set with human leukemia HL-60 was “celastrol>etoposide>dihydrocelastrol”. Also, the concentration inducing apoptosis entry with human leukemia HL-60 (human leukemia HL-60 model) is “sub-micromolar concentrations”. Moreover, the IC50 was 230 nM with nitric oxide production and 270 nM in the data set with NF-κB activation. Moreover, in the data set with protein aggregation, the “inhibition of protein aggregation” value was “potent inhibitor”. For the same compound, the “inhibition of expression of inducible NO synthase” value with inducible NO synthase was “inhibits”. Besides, the “inhibition of production of TNF-α” value in the data set on TNF-α was “inhibits”. In [3], the “concentration enhancing cellular HSP production” value is given as “sub-micromolar concentrations”. The Hsp70 generation result is recorded as “.043” with Hsp70 (Dose 0.1 uM); “.046” with Hsp70 (Dose 0.3 uM); “.039” with Hsp70 (Dose 0.5 uM); “.423” in the data set on Hsp70 (Dose 1.0 uM); 15.0 with Hsp70 (Dose 2.0 uM); 4.54 in the data set with Hsp70 (Dose 3.0 uM). Further, the Hsp70 generation result is “.240” in the data set with Hsp70 (Dose 6 uM) and “.034” with Hsp70 (Dose 10 uM).
